Data on three compounds can be found in article PMC5407577, “Functional and genetic evidence that nucleoside transport is highly conserved in Leishmania species: Implications for pyrimidine-based chemotherapy” (International Journal for Parasitology: Drugs and Drug …, 2017).

Read-outs that look alike come from different tables or passages of the source.

Experiment [1] concerns the target LmajUUT1. The experiment is described as follows: [3H]-uridine uptake by L. major promastigotes, high-affinity uracil-sensitive component. It counts as cell-based, Leishmania major. As to conditions: for Ki: inhibition of 0.25 μM [3H]-uridine uptake; for Km: double reciprocal plot, n = 3, read-out: Km (1). The protocol:
(§1) Using the standard uptake technique as described for T. brucei and Leishmania species ([Wallace et al., 2002], [Al-Salabi and De Koning, 2005], [Gudin et al., 2006]), the dose- or time-dependent uptake of radiolabeled permeants was investigated.
(§2) Briefly, cells in the mid-to-late logarithmic stage of growth were harvested by centrifugation for 10 min at 1500×g. The cells were washed twice with transport assay buffer (AB: 33 mM HEPES, 98 mM NaCl, 4.6 mM KCl, 0.55 mM CaCl2, 0.07 mM MgSO4, 5.8 mM NaH2PO4, 0.3 mM MgCl2, 23 mM NaHCO3, 14 mM glucose, pH 7.3), resuspended at a density of 10^8 cells ml^−1 in AB, and left for 20–30 min at room temperature to recover from centrifugation stress. One hundred microliters of cell suspension was incubated at ambient temperature for a predetermined time with 100 μl radiolabeled test compound, in the presence or absence of unlabeled substrate or other competitive inhibitors. The incubation was terminated by the addition of ice-cold stop solution (AB containing saturating levels, usually 10 mM, of unlabeled permeant) and centrifugation through oil for 1 min at 13,000 × g. […] Radioactivity was determined by liquid scintillation counting in a Beckman LS6000 TA scintillation counter. Saturation data, inhibition data, and time courses were plotted to equations for linear or non-linear regression (hyperbolic or sigmoid curves), as appropriate. All experiments were performed in triplicate and on at least three independent occasions.

Experiment [2] has as its system LdNT1.1. Details: method as in Vasudevan et al., 1998; Landfear, 2001. As to conditions: ref Vasudevan et al., 1998; Landfear, 2001; cited from earlier work.
Experiment [3] relates to T. b. brucei strain B48. Description: [3H]-inosine uptake in non-transfected T. brucei B48. It counts as cell-based, Trypanosoma brucei brucei. As to conditions: 250 μM adenosine or 1 mM unlabeled inosine (Fig. 7B). The protocol: as §1, §2
Experiment [4] relates to LdNT1.2. Details: method as in Vasudevan et al., 1998; Landfear, 2001. As to conditions: ref Vasudevan et al., 1998; Landfear, 2001; cited from earlier work.
Experiment [5] concerns the target LmajNT1. The experiment is described as follows: [3H]-uridine uptake by L. major promastigotes, low-affinity component. Format: cell-based, Leishmania major. Conditions: for Ki: inhibition of 0.25 μM [3H]-uridine uptake. The protocol: as §1, §2
In experiment [6] the test system is Lmex5F2′dURes. It counts as cell-based, Leishmania mexicana. As to conditions: 0.5 μM [3H]-uridine, 0.1 μM [3H]-adenosine, 0.25 μM [3H]-uracil. The method, boiled down: (§3)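 Mid-to-late log-phase parasites were washed and held at 10^8 cells ml^−1 in HEPES/bicarbonate buffer with glucose, pH 7.3, then incubated at ambient temperature with radiolabelled permeant, with or without unlabelled substrate or inhibitors. Uptake was stopped with ice-cold excess unlabelled permeant and oil centrifugation, then counted by scintillation; saturation, inhibition and time-course data fitted by regression, in triplicate.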

Experiment [7] concerns the target LmexNT1. Format: cell-based, Leishmania mexicana. Conditions: for Ki: inhibition of 0.25 μM [3H]-uridine uptake in the presence of 1 mM uracil. The method, boiled down: as §3
For experiment [8], the system named is L. mexicana promastigotes. It counts as cell-based, Leishmania mexicana. Conditions: for inhibition of 0.25 μM [3H]-uridine transport: maximal inhibition, uracil up to 2.5 mM (Fig. 3B). The method in brief: as §3
For experiment [9], the target named is L. major promastigotes. Description: total [3H]-uridine uptake by L. major promastigotes. Format: cell-based, Leishmania major. The protocol:
as §1, §2

For experiment [10], the target named is LmajNT1. The experiment is described as follows: [3H]-thymidine uptake by L. major promastigotes. Format: cell-based, Leishmania major. As to conditions: inhibition of 0.25 μM [3H]-thymidine uptake (total LmajNT1.1 + LmajNT1.2), 5 min.
The target in experiment [11] is LmexNT1. Format: cell-based, Leishmania mexicana. As to conditions: inhibition of 1 μM [3H]-thymidine uptake, 20 s. The protocol:
as §1, §2
L. donovani is known to express one pyrimidine nucleoside transporter, LdNT1, which also transports adenosine ([Vasudevan et al., 1998], [De Koning et al., 2005]). In order to investigate whether this model held true for L. mexicana, the uptake of [^3H]-thymidine was studied. […] Care was taken throughout this study that whenever inhibition constants (Ki) or Michaelis-Menten constants (Km) were determined the conditions used had been verified to be well within the linear range of uptake.

The test system of experiment [12] is LmexNT1. Description: [3H]-adenosine uptake by L. mexicana promastigotes. Conditions: for Ki: inhibition of 0.05 μM [3H]-adenosine uptake, read-out: Ki. Format: cell-based, Leishmania mexicana.
Excerpt: Using the standard uptake technique as described for T. brucei and Leishmania species ([Wallace et al., 2002], [Al-Salabi and De Koning, 2005], [Gudin et al., 2006]), the dose- or time-dependent uptake of radiolabeled permeants was investigated. The following radiolabels and specific activities were used: [^3H]-thymidine (Perkin Elmer; 56.6 Ci/mmol); [^3H]-adenosine (American Radiolabeled Chemicals UK; 40 Ci/mmol); [^3H]-uridine (American Radiolabeled Chemicals UK; 30 Ci/mmol); [^3H]-uracil (Perkin Elmer; 24.8 Ci/mmol); [^3H]-inosine (American Radiolabeled Chemicals UK; 20 Ci/mmol); [^3H]-5-fluorouracil (Moravek; 20 Ci/mmol).
as §2
We next investigated the transport of [^3H]-adenosine in L. mexicana promastigotes, which according to the efficient inhibition of [^3H]-thymidine by adenosine, should be taken up with high affinity.

In experiment [13] the test system is LmajNT2. The experiment is described as follows: [3H]-inosine transport by T. brucei B48 cells expressing LmajNT2. Conditions: 250 μM adenosine. It counts as cell-based, Leishmania major. The protocol: Plasmid construction and transfection was performed according to [Munday et al. (2013)]. The nucleoside transporter genes were isolated from L. mexicana and L. major. […] The primers used in this study (Table S2) were designed to flank the gene of interest, one complementary to the sequence upstream of the 5′ end and the other complementary to the sequence downstream of the 3′ end. All of the nucleoside transporters genes were PCR-amplified from genomic DNA of each strain using the high-fidelity proof-reading polymerase Phusion (New England Biolabs) and cloned into the pGEMTeasy (Promega) vector prior to Sanger sequencing (Source BioScience, Glasgow, UK). […] After confirming the identity of each gene, the nucleoside transporter genes (LmajNT1A, LmajNT1B, LmajNT2, LmexNT1A, LmexNT1B, and LmexNT2) were ligated into the expression vector pHD1336 ([Biebinger et al., 1997]) and then were linearized with NotI digestion. All genes were verified by Sanger sequencing, prior to transfection into T. b. brucei clone B48. B48 parasites (1 × 10^7 cells) were washed into Human T Cell buffer for transfection using the desired cassette with an Amaxa Nucleofector using program X-001. Cells were transferred into pre-warmed HMI-9 medium and allowed to recover for 8–16 h at 37 °C and 5% CO2. Following recovery, transfectants were grown and cloned in selective medium containing 5 μg ml^−1 blasticidin S using limiting dilution.
as §1
Briefly, cells in the mid-to-late logarithmic stage of growth were harvested by centrifugation for 10 min at 1500×g. […] Radioactivity was determined by liquid scintillation counting in a Beckman LS6000 TA scintillation counter. […]

Experiment [14] concerns Lmex5FURes. It counts as cell-based, Leishmania mexicana. As to conditions: 0.5 μM radiolabel. The method in brief: as §3
In experiment [15] the test system is LmexUU1. It counts as cell-based, Leishmania mexicana. The method in brief: as §3
In experiment [16] the test system is LmajU1. More on the design: method as in Papageorgiou et al., 2005. As to conditions: ref Papageorgiou et al., 2005; cited from earlier work.
Experiment [17] concerns Lmaj5F2′dURes. It counts as cell-based, Leishmania major. Conditions: 0.25 μM [3H]-uridine, 0.5 μM [3H]-uracil. The protocol:
as §1, §2

Experiment [18] relates to Lmaj5FURes. Format: cell-based, Leishmania major. Conditions: 0.5 μM radiolabel. The protocol: as §1, §2
Experiment [19] has as its system T. b. brucei strain B48. The experiment is described as follows: microbe, parasite or virus in culture. As to conditions: Trypanosoma brucei, read-out: inhibition of 0.5 μM [3H]-uridine uptake, 250 μM inhibitor. Format: cell-based. The protocol: as §1
as §2, with “All experiments were performed in triplicate and on at least three independent occasions.” left out

For experiment [20], the target named is P1 adenosine/inosine transporter. Details: method as in De Koning and Jarvis, 1999. Conditions: ref De Koning and Jarvis, 1999; cited from earlier work.
Setting [21] is: [3H]-uridine, high affinity component.

For the compound `Nc1ncnc2c1ncn2[C@@H]1O[C@H](CO)[C@@H](O)[C@H]1O` [adenosine], the Ki was found to be 1.93 ± 0.49 µM in experiment [1]; 1.93 ± 0.49 µM in experiment [5]; 0.39 ± 0.09 µM in experiment [7]; 1.93 ± 0.49 µM in experiment [9] (complete inhibition of [3H]-uridine transport (both components)); 1.77 ± 0.21 µM in [10]; 0.25 ± 0.04 µM in [11]. Besides, the Km in [2] was approximately 0.2 µM; in [4] it was approximately 5 µM; in experiment [12] ([3H]-adenosine), 0.81 ± 0.16 µM. Moreover, the entries for the “inhibition of 50 nM [3H]-inosine transport” value in experiment [3] and in experiment [13] were “fully inhibited” and 57%, respectively. In experiment [6], the “uptake of radiolabel, reduced compared to WT control cells” value is on record as 89%. Further, in [8], the “inhibition of 0.25 μM [3H]-uridine transport” value is reported as approximately 100%. The rate of transport in [12] (0.1 μM [3H]-adenosine, linear over at least 30 s) is recorded as 0.21 ± 0.01 pmol(10^7 cells)^−1s^−1. In addition, in [12] ([3H]-adenosine), the Vmax is on record as 1.11 ± 0.19 pmol(10^7 cells)^−1s^−1.
Turning to `O=c1cc[nH]c(=O)[nH]1` [uracil], the Ki in experiment [1] is 2.65 ± 0.6 µM; in [5], more than 1000 µM; in experiment [7], more than 2500 µM; in experiment [8] (read-out: Ki, uracil-sensitive uridine transporter, partial inhibition of 0.25 μM [3H]-uridine uptake, n = 5) it was 25.7 ± 6.6 µM; in experiment [10], more than 1000 µM; in [11], more than 2500 µM. The Ki in experiment [12] was more than 2500 µM. Besides, the “uptake of radiolabel, reduced compared to WT control cells” value in experiment [6] is “unaffected”; in experiment [6] (listed as [^3H]-uracil), “not significantly different”. Also, the “uptake of radiolabel, lower than in WT control cells” value amounted to 90.2% in experiment [14], 80% in experiment [17], 81.4% in experiment [17] (listed as [^3H]-uracil) and 95.7% in experiment [18]. Moreover, in experiment [8], the “inhibition of 0.25 μM [3H]-uridine transport” value amounted to 48%. For the same compound, the rate of transport in [15] (0.25 μM [3H]-uracil, linear to at least 10 min) is reported as 0.0020 ± 0.0002 pmol(10^7 cells)^−1s^−1; in experiment [15] (0.5 μM [3H]-uracil, linear over 10 min (Fig. 4B legend)), 0.0020 ± 0.0002 pmol(10^7 cells)^−1s^−1; in experiment [15] (1 μM [3H]-uracil, linear over 120 s), 0.0030 ± 0.0002 pmol(10^7 cells)^−1s^−1. Besides, the “inhibition of 0.5 μM [3H]-uracil transport” value in experiment [15] (1 mM unlabeled uracil) was determined as 95%. Further, in [15] ([3H]-uracil), the Vmax is on record as 0.088 ± 0.010 pmol(10^7 cells)^−1s^−1. Moreover, the Km in experiment [15] ([3H]-uracil, 4 min, n = 3) is 29.7 ± 4.4 µM; in experiment [16], 0.32 µM. The inhibition at 0.25 µM in experiment [9] (Leishmania major, 3 h, read-out: partial (maximal) inhibition of 0.25 μM [3H]-uridine transport) came out at 77.2 ± 2.7%. Moreover, the inhibition at 250 µM in experiment [19] was found to be 75.7%.
Regarding `O=c1ccn([C@@H]2O[C@H](CO)[C@@H](O)[C@H]2O)c(=O)[nH]1` [uridine], in experiment [1] (setting [21]), the “Vmax (1)” value is listed as 0.036 ± 0.004 pmol(10^7 cells)^−1s^−1. Also, the Km was 3.12 ± 0.61 µM in experiment [1] ([3H]-uridine, high affinity component, listed as [^3H]-uridine); 3.1 ± 0.6 µM in experiment [1] (setting [21]); 5 µM in [2]; 40 µM in experiment [4]; 33.5 ± 7.3 µM in experiment [5] ([3H]-uridine, low affinity component, n = 3, read-out: Km (2)); 13.3 ± 2.4 µM in experiment [7] ([3H]-uridine, measured in the presence of 1 mM uracil). The Km in experiment [8] (read-out: Km for the uridine flux, total flux, no uracil, n = 5) was found to be 7.15 ± 0.9 µM; in experiment [9] (n = 3, read-out: apparent Km (single Michaelis-Menten saturation plot)) it was 7.3 ± 1.3 µM. Moreover, the “Vmax (2)” value in [5] ([3H]-uridine, low affinity component) is given as 0.15 ± 0.04 pmol(10^7 cells)^−1s^−1. The Vmax in [7] ([3H]-uridine, in the presence of 1 mM uracil) is 0.74 ± 0.13 pmol(10^7 cells)^−1s^−1. For the same compound, the Ki in experiment [15] (inhibition of [3H]-uracil uptake, 4 min) was 2 ± 0.5 µM; in experiment [20], 830 µM; in experiment [11] it was 9.1 ± 0.6 µM; in [12] it was 16.8 ± 1.3 µM. Also, the “maximal inhibition of [3H]-uracil transport” value in [15] (n = 3) was “approximately 85%”.

A word on the Ki: it is a dissociation constant, usually derived from enzyme kinetics or from competition with a known ligand. As usually defined, the inhibition is the change of the read-out against control, counted positive when it falls.
